{
  "source": "patent US20100179089A1",
  "about": "“Compositions and Methods to Manage the Inflammatory Basis of Chronic Disease Conditions and Maintain an Optimal Immune Response in Elderly” (priority 2009, published 2010)",
  "key": {"[1]": {"system": "protein synthesis", "assay": "Amino acid supplementation and protein synthesis in normal, inflamed and inflamed with DHA conditions (FIG. 4)", "conditions": "conditions of inflammation (FIG. 4)", "from_the_text": "Given the observed changes in protein intake and observed changes in protein synthesis in aging, it is believed that a hyperinflammed state compromises protein synthesis and further accentuates chronic disease related to arginine deficiency and malnutrition.\nOmega-3 fatty acids, including but not limited to alpha-linolenic acid (ALA), eicosapentaenoic (EPA) and docosahexaenoic acids (DHA); omega-6 linoleic acid; and borage oil (also an omega-6 fatty acid) are currently used in different diets with the intention to improve immune dysfunction. […] Used with omega-3 fatty acids, arginine is believed to be more available to provide a normal response under conditions of inflammation. Dietary intake of omega-3 fatty acids by the elderly may favorably shift the balance in the production of PGE2, via […] and downregulation of arginase (as shown in FIG. 6) and, consequently, help avoid arginine deficiency and thereby improve or maintain optimal immune system function. […] The products of omega-6 fatty acid metabolism are believed to contribute to arginine deficiency and inflammation in this way. There have been numerous studies showing the benefits of dietary omega-3 fatty acids over omega-6 fatty acids in various physiologic conditions including coronary artery disease, chronic inflammatory conditions such as cancer, and other inflammatory mediated states."}, "[2]": {"system": "muscle protein synthesis", "conditions": "cited from earlier work"}, "[3]": {"system": "muscle protein synthesis", "conditions": "pigs with a sepsis-like syndrome, arginine supplementation; cited from earlier work"}},
  "note": "Where two headings read alike, the source gives them in different places.",
  "data": [
    {"compound": "CC/C=C\\C/C=C\\C/C=C\\C/C=C\\C/C=C\\C/C=C\\CCC(=O)O", "note": "[DHA, docosahexaenoic acids]", "values": [
      {"measurement": "Protein synthesis", "setting": "[1]", "value": "improves the efficacy of arginine delivery in promoting protein synthesis"}
    ]},
    {"compound": "N=C(N)NCCC[C@H](N)C(=O)O", "note": "[arginine]", "values": [
      {"measurement": "Muscle protein synthesis", "setting": "[2]; anesthetized rabbits, infusion", "value": "stimulated"},
      {"measurement": "Muscle protein breakdown", "setting": "[2]; post-absorptive rabbits, arginine added to the amino acid solution", "value": "unchanged"},
      {"measurement": "Muscle protein synthesis", "setting": "[3]", "value": "improved"}
    ]}
  ]
}
